From US9630896B2, “2,5-dialkyl-4-H/halo/ether-phenol compounds” (Tansna Therapeutics Inc, priority 2013, dated 2017) come the findings set out here.

As a reminder, the ED50 is the midpoint of the dose-response relation. Lower therefore signals an effect at a small dose. What is called TD50 is the 50% point of the dose-response relation for the toxic effect studied. Read a low TD50 as harm at a small dose.

The structures appear in SMILES notation.

Data set [1] deals with MES Model (maximal electroshock seizure). Briefly: Maximal electroshock seizure (MES) test. In kind it is in vivo. Particulars: Mouse, IP. The procedure:
3. Maximal Electroshock Seizure (MES) Test
MES test is performed as in the Minimal Clonic Seizure (6 Hz) test, but the MES test utilizes a current of 50 mA (mice) or 150 mA (rats), frequency of 50-60 Hz, and a stimulation time of 0.2 seconds. Upon stimulation, untreated test subjects display immediate severe tonic seizure (including maximal extension of legs) and the body becomes stiffened for roughly 10-15 seconds. Next, clonic seizures start (including shaking of body and paddling movements of the hind limbs) and may last 20-30 seconds (Castel-Branco M M, Alves G L, Figueiredo I V, Falcao A C, Caramona M M: The Maximal Electroshock Seizure (MES) Model in the Preclinical Assessment of Potential New Antiepileptic Drugs. Methods and Findings in Experimental and Clinical Pharmacology 2009; 31:101-06). Test subjects that display reduced or eliminated symptoms of MES-type seizures during and/or after stimulation are considered protected.
For orientation: Protection in the maximal electroshock model is a classic sign of anticonvulsant action.

Data set [2] has as its system 6 Hz 32 mA Epilepsy Model (electrically induced psychomotor seizure). The data set can be described thus: Minimal clonic seizure (6 Hz, 32 mA) test. In kind it is in vivo, Mouse. Particulars: for animals protected/animals tested: 6 Hz 32 mA, Mouse, IP; for ED50: Mus musculus, ip, 6 Hz 32 mA dose response (Test 7-2), mice. From the text:
(§1) 1. Minimal Clonic Seizure (6 Hz, 32 mA or 44 mA) Test
(§2) Test compounds are pre-administered to mice via i.p. injection. At varying times, individual mice (four per time point) are challenged with sufficient current delivered through corneal electrodes to elicit a psychomotor seizure in 97% of animals (32 mA or 44 mA for 3 s) (Toman J E P, Everett G M, Richards R K: The Search for New Drugs against Epilepsy. Texas Reports on Biology and Medicine 1952; 10:96-104). Untreated mice will display seizures characterized by a minimal clonic phase followed by stereotyped, automatistic behaviors described originally as being similar to the aura of human patients with partial seizures. Animals not displaying this behavior are considered protected. The test compounds are evaluated quantitatively by measuring the responses at varying doses at a determined time of peak effect (TPE).

The test system of data set [3] is Corneal Kindled Mouse (Stage 5 seizures). Briefly: Corneal kindled mouse (focal seizures) - Test 26. In kind it is in vivo. Particulars: IP, TPE 0.5 hrs. From the text: 2. Corneal Kindling (Focal Seizures)
Mice are kindled electrically with 3 sec stimulation, 8 mA, 60 Hz, and corneal electrodes to a criterion of 10 consecutive Stage 5 seizures (facial clonus and head nodding progressing to forelimb clonus, and finally rearing and falling accompanied by a generalized clonic seizure as described by Racine (Racine R J: Modification of Seizure Activity by Electrical Stimulation. II. Motor Seizure. Electroen Clin Neuro 1972; 32:281-94). Stage 5 is generally reached after twice daily stimulation for 8 days. With continued stimulation once a day, animals usually progress to a reproducible Stage 5 after 10-14 additional days. At least 72 hours after the mice have been kindled, the test substance is administered either intraperitoneal (i.p.) or per os (p.o.) and, at the previously determined TPE, each animal is given the electrical stimulus indicated above. Following stimulation, the animals are observed for the presence or absence of the rearing and falling criteria of a Stage 5 seizure. Treated animals not displaying a Stage 3, 4, or 5 seizure are considered protected. The dose of the test substance is varied between the limits of 0 and 100% efficacy, and the ED50 and 95% confidence intervals calculated by probit analysis. Mean values and the S.E.M. are calculated for the length of clonus and seizure duration and p values are determined by the Student's t-test.

The subject of data set [4] is minimal muscular or neurological impairment (rotorod). Briefly: Acute toxicity - minimal motor impairment (rotorod). Particulars: for Toxicity Ratio: Mouse. In kind it is in vivo. From the text: 4. Acute Toxicity-Minimal Motor Impairment
To assess a compound's undesirable side effects (toxicity), animals are monitored for overt signs of impaired neurological or muscular function. In mice, the rotorod (Dunham N W, Miya T S: A Note on a Simple Apparatus for Detecting Neurological Deficit in Rats and Mice. Journal of the American Pharmaceutical Association 1957; 46:208-09), procedure is used to disclose minimal muscular or neurological impairment. When a mouse is placed on a rod that rotates at a speed of 6 rpm, the animal can maintain its equilibrium for long periods of time. The animal is considered toxic if it falls off this rotating rod three times during a 1-min period. In rats, minimal motor deficit is indicated by ataxia, which is manifested by an abnormal, uncoordinated gait. Rats used for evaluating toxicity are examined before the test drug is administered, since individual animals may have peculiarities in gait, equilibrium, placing response, etc., which might be attributed erroneously to the test substance.
In general terms: In the rotarod test animals must keep their balance on a rotating rod.

The subject of data set [5] is 6 Hz 32 mA Epilepsy Model (electrically induced psychomotor seizure). Briefly: Minimal clonic seizure (6 Hz, 32 mA) test. In kind it is in vivo. Particulars: Mouse, Oral, 100 mg/kg, TPE N/A.
For data set [6], the system named is 6 Hz 44 mA Epilepsy Model (electrically induced psychomotor seizure). The data set can be described thus: Minimal clonic seizure (6 Hz, 44 mA) test. In kind it is in vivo. Particulars: Mouse, IP, 100 mg/kg.
Description: as §1, §2

Where [7] appears, read: MES screen table, IP, 100 mg/kg, TPT N/A.
Setting [8] is: Test 7-1 table, IP, 100 mg/kg, TPT N/A.
[9] abbreviates: Test 7-1 table, IP, 30 mg/kg, TPT NA.
The mark [10] stands for this setting: Test 7-1 table, IP, 300 mg/kg, TPT 0.5 hrs.
Setting [11] is: Test 7-3 table, IP, 100 mg/kg, TPT N/A.

For `Cc1cc(Br)c(C(C)C)cc1O` [Ex. 9, 4-bromo-5-isopropyl-2-methyl phenol], the animals protected/animals tested in data set [1] (100 mg/kg, TPE 0.25 hrs) is reported as 1/4; in data set [2] (100 mg/kg, TPE 0.5 hrs), 3/4; in data set [5], 0/4. Also, it took a dose of 19 mg/kg to reach the 50% effect level in data set [2] (TPE 0.5 hrs) (ED50). The “Average Seizure Score” value in data set [3] (19 mg/kg) came to 3.75. Besides, the “Seizure Ratio” value in data set [3] (19 mg/kg) is on record as 1/4. The “Toxicity Ratio” value is reported as 0/8 in data set [4] (setting [7]); 0/4 in data set [4] (setting [8]); 0/4 in data set [4] (Test 7-1 table, Oral, 100 mg/kg, TPT N/A). Besides, in data set [4] (mouse, in vivo, intraperitoneal, Test 7-2 table, TPT 6 hrs), the TD50 at 6 hrs amounted to 398 mg/kg.
In the case of `Cc1cc(Br)c(C(C)(C)C)cc1O` [Ex. 25, 4-Bromo-5-tert-butyl-2-methyl-phenol], the animals protected/animals tested in data set [2] (30 mg/kg, TPE 0.5 hrs) is given as 2/4; in data set [2] (100 mg/kg, TPE 0.5 hrs) it was 2/4; in data set [2] (300 mg/kg, TPE 2 hrs), 4/4. The figures for the “Toxicity Ratio” value in data set [4] (setting [9]), in data set [4] (setting [8]) and in data set [4] (setting [10]) were 0/8, 0/8 and 4/8, respectively.
On to `CCc1cc(Br)c(C(C)C)cc1O` [Ex. 64, 4-Bromo-2-ethyl-5-isopropyl-phenol], for which the animals protected/animals tested is 0/4 in data set [1] (30 mg/kg, TPE NA); 1/4 in data set [1] (100 mg/kg, TPE 0.5 hrs); 2/4 in data set [1] (300 mg/kg, TPE 0.5 hrs); 1/4 in data set [2] (30 mg/kg, TPE 0.5 hrs); 3/4 in data set [2] (100 mg/kg, TPE 0.5 hrs); 4/4 in data set [2] (300 mg/kg, TPE 0.5 hrs). Besides, the animals protected/animals tested in data set [6] (TPE 0.25 hrs) is 1/4. The “Toxicity Ratio” value in data set [4] (MES screen table, IP, 30 mg/kg, TPT NA) was 0/8; in data set [4] (setting [7]) it was 0/8; in data set [4] (MES screen table, IP, 300 mg/kg, TPT 0.5 hrs), 6/8; in data set [4] (setting [9]), 0/8; in data set [4] (setting [8]), 0/8; in data set [4] (setting [10]), 6/8. Moreover, the “Toxicity Ratio” value in data set [4] (setting [11]) is on record as 0/4.
`Cc1cc(O)c(C(C)C)cc1Br` [Ex. 132, 4-Bromo-2-isopropyl-5-methyl-phenol]: the animals protected/animals tested in data set [1] (100 mg/kg, TPE 1 hrs) was 2/4; in data set [2] (100 mg/kg, TPE 0.5 hrs), 3/4; in data set [6] (TPE 2 hrs) it was 2/4. In data set [2] (TPE 0.5 hrs), this compound returned an ED50 of 28 mg/kg. The “Average Seizure Score” value in data set [3] (28 mg/kg) stood at 4.5. Moreover, in data set [3] (28 mg/kg), the “Seizure Ratio” value was 1/4. In addition, the “Toxicity Ratio” value in data set [4] (MES screen table, IP, 100 mg/kg, TPT 0.5 hrs) was 1/8; in data set [4] (setting [8]) it was 0/4; in data set [4] (setting [11]) it was 0/4. In data set [4] (mouse, in vivo, intraperitoneal, Test 7-2 table, TPT 4 hrs), this compound gave a TD50 at 4 hrs above 200 mg/kg.
For `CC(C)c1cc(O)c(C(C)(C)C)cc1Br` [Ex. 204, 4-Bromo-2-tert-butyl-5-isopropyl-phenol], the animals protected/animals tested in data set [1] (100 mg/kg, TPE 0.25 hrs) is recorded as 1/4; in data set [2] (100 mg/kg, TPE 0.5 hrs) it was 2/4. In addition, the entries for the “Toxicity Ratio” value in data set [4] (setting [7]) and in data set [4] (setting [8]) were 0/8 and 0/4, respectively.
For the compound `CCCc1ccc(C(C)C)cc1O` [Ex. 95, 5-Isopropyl-2-propyl-phenol], the animals protected/animals tested in data set [1] (30 mg/kg, TPE 0.5 hrs) is given as 0/4; in data set [1] (100 mg/kg, TPE 0.5 hrs), 0/4; in data set [1] (300 mg/kg, TPE 0.5 hrs), 1/4; in data set [2] (10 mg/kg, TPE 0.5 hrs), 3/4; in data set [2] (30 mg/kg, TPE 0.5 hrs), 0/4; in data set [2] (300 mg/kg, TPE 0.5 hrs) it was 3/4. Also, the “Toxicity Ratio” value in data set [4] (Test 7-1 table, IP, 10 mg/kg, TPT 0.5 hrs) is on record as 1/8; in data set [4] (Test 7-1 table, IP, 30 mg/kg, TPT 0.5 hrs), 0/8; in data set [4] (setting [10]), 3/8.
